Experimental data from patent US11419918B2, “Treatment of biliary cirrhosis based on oxyntomodulin analogue GLP-1R/GCGR dual-target agonist peptide” (Shenzhen Turier Biotech Co., Ltd., priority 2017, dated 2022).
Numbered stars: 1 amine (or outer) side, 2 acyl side, 3 side chain; on linkers, the order of the positions; unused ones are H or OH. Square brackets hold non-standard residues; d marks the D form. Primed or numbered codes have the meaning given here. Side chains are listed from the residue outwards. Ends that are not written are not given here. * marks the point of attachment. C18 diacid = O=C(O)CCCCCCCCCCCCCCCCC(=O)*; C16 diacid = O=C(O)CCCCCCCCCCCCCCC(=O)*; γGlu = O=C(O)[C@H](CCC(=O)[*:2])N[*:1]; Stearoyl = CCCCCCCCCCCCCCCCCC(=O)*; Palmitoyl = CCCCCCCCCCCCCCCC(=O)*; Nle = CCCC[C@H](N)C(=O)O; PEG2′ = not defined here; Aib = CC(C)(N)C(=O)O

Columns and labels:
[1] = system: human hepatic stellate cells (LX-2); experiment: In vitro inhibition of hepatic fibrosis: expression of activation marker α-SMA in LX-2 cells (Western Blot, β-actin internal reference); type: cell-based; conditions: 10.0 μM, 48 hours, negative control (PBS) = 100%
Experimental: Hepatic stellate cell strain LX-2 was selected to study and observe the effect of different doses of test substances on the expression of LX-2 cell activation marker α-SMA. Hepatic stellate cell LX-2 was laid on 35 mm cell culture plate, cultured with DMEM (high glucose)+10% FBS+1% double-antibody culture medium (Thermo Fisher), placed overnight when the cells grew to 70% convergence at 37° C. and under the condition of 5% CO2, and treated with the above GLP-1R/GCGR dual target agonist polypeptides 1-48 (dissolved in PBS) for 48 hours the next day morning to extract cell protein, carry out Western Blot, and take β-actin as internal reference and analyze the expression quantities of α-SMA and β-actin by a gray level of Image J 1.50i. PBS with the same volume as that in experimental group was added in negative control. […] The integrating gray level of α-SMA/β-actin in the negative control group was 100% to analyze the in vitro inhibition activity of hepatic fibrosis of tested polypeptide.

[2] = system: BDL-induced cholestasis hepatic fibrosis in rats; experiment: Bile duct ligation (BDL)-induced hepatic fibrosis in rats (biliary cirrhosis rat model); type: in vivo, SD rats; conditions: 50 μg/kg subcutaneous every two days, 14 days
Experimental: 1. Experimental Drugs: polypeptide compounds 3, 6, 7, 10, 17, 20, 37, 38, 39, 40, 44, 46, Obeticholic Acid (Abbr. OCA, CAS:459789-99-2, purchased from Zhejiang Warrant Pharmaceutical Co., Ltd.) and Liraglutide. Saving condition was −20° C.
128 male SD rats with body weight of 200-230 g were randomly divided into sixteen groups, which were respectively:
SD rats with body weight of 200-230 g at SPF level were provided by Lanzhou University Laboratory Animal Center. After rats were quarantined in the room (SPF environment) for one week, model rat and rat in sham-operated group were subject to intraperitoneal injection and anesthesia with 0.6% pentobarbital sodium solution, and operation was performed on a super clean bench after anesthesia. Bilateral ligation was conducted on model rat after the common bile duct was separated, and ligation was not conducted on rat in sham-operated group, but only the common bile duct was separated. Administration was started from the next day of the operation.
Administration was started from the first day of the operation, and subcutaneous injection of compounds 3, 6, 7, 10, 17, 20, 37, 38, 39, 40, 44, 46 and Liraglutide with 50 μg/kg was performed every two days; intraperitoneal injection for the Obeticholic Acid administration group with 7.5 mg/kg was performed every day; as for the normal saline group, injection was performed every day. During the administration, changes in vital signs of rats were observed every day.
After the end of two weeks of administration cycle (14 days), the rats were killed to collect materials for subsequent biological determination experiments. The livers were taken out for HE dye, Sirius Red dye and IHC dye. Image-pro plus and Graph pad software were used for statistics.

Substance | Relative expression of α-SMA (α-SMA/β-actin, %) [1] [%] | ALT in the serum (FIG. 6) [2] | BDL-induced hepatic fibrosis and inflammation (HE, Sirius Red, IHC sections) [2] | collagenous fiber deposition in liver (Sirius Red dyed sections, FIGS. 2, 4) [2] | content of hydroxyproline of the liver (FIG. 7) [2] | α-SMA in liver (IHC dyed sections, FIGS. 3, 5) [2]
His-(D-Ser)-Gln-Gly-Thr-Phe-Thr-Ser-Asp-Tyr-Ser-Lys-Tyr-Leu-Asp-Lys(PEG2-PEG2-γGlu-CO(CH2)16CO2H)-Arg-Arg-Ala-Gln-Asp-Phe-Val-Gln-Trp-Leu-Nle-Asn-Thr-Gly-Gly-Pro-Ser-Ser-Gly-Ala-Pro-Pro-Pro-Ser-NH2 (H[dS]QGTFTSDYSKYLDK([PEG2′-PEG2′-γGlu-C18 diacid])RRAQDFVQWL[Nle]NTGGPSSGAPPPS-NH2) [Compound 38] | 40.55 | significantly inhibit | significantly reduce | significantly inhibit | significantly inhibit | significantly inhibit
His-(D-Ser)-Gln-Gly-Thr-Phe-Thr-Ser-Asp-Tyr-Ser-Lys-Tyr-Leu-Asp-Aib-Lys(PEG2-PEG2-γGlu-CO(CH2)16CO2H)-Arg-Ala-Gln-Asp-Phe-Val-Gln-Trp-Leu-Met-Asn-Thr-Gly-Gly-Pro-Ser-Ser-Gly-Ala-Pro-Pro-Pro-Ser-NH2 (H[dS]QGTFTSDYSKYLD[Aib]K([PEG2′-PEG2′-γGlu-C18 diacid])RAQDFVQWLMNTGGPSSGAPPPS-NH2) [Compound 7] | 40.52 | significantly inhibit | significantly reduce | significantly inhibit | significantly inhibit | significantly inhibit
His-(D-Ser)-Gln-Gly-Thr-Phe-Thr-Ser-Asp-Lys(PEG2-PEG2-CO(CH2)16CO2H-Ser-Lys-Tyr-Leu-Asp-Aib-Arg-Arg-Ala-Gln-Asp-Phe-Val-Gln-Trp-Leu-Nle-Asn-Thr-Gly-Gly-Pro-Ser-Ser-Gly-Ala-Pro-Pro-Pro-Ser-NH2 (H[dS]QGTFTSDK([PEG2′-PEG2′-C18 diacid])SKYLD[Aib]RRAQDFVQWL[Nle]NTGGPSSGAPPPS-NH2) [Compound 46] | 36.84 | significantly inhibit | significantly reduce | significantly inhibit | significantly inhibit | significantly inhibit
His-(D-Ser)-Gln-Gly-Thr-Phe-Thr-Ser-Asp-Tyr-Ser-Lys-Tyr-Leu-Asp-Lys(PEG2-PEG2-γGlu-CO(CH2)14CH3)-Arg-Arg-Ala-Gln-Asp-Phe-Val-Gln-Trp-Leu-Met-Asn-Thr-Gly-Gly-Pro-Ser-Ser-Gly-Ala-Pro-Pro-Pro-Ser-NH2 (H[dS]QGTFTSDYSKYLDK([PEG2′-PEG2′-γGlu-Palmitoyl])RRAQDFVQWLMNTGGPSSGAPPPS-NH2) [Compound 6] | 29.19 | significantly inhibit | significantly reduce | significantly inhibit | significantly inhibit | significantly inhibit
His-(D-Ser)-Gln-Gly-Thr-Phe-Thr-Ser-Asp-Tyr-Ser-Lys-Tyr-Leu-Asp-Lys(PEG2-PEG2-γGlu-CO(CH2)16CO2H)-Arg-Arg-Ala-Gln-Asp-Phe-Val-Gln-Trp-Leu-Leu-Asn-Thr-Gly-Gly-Pro-Ser-Ser-Gly-Ala-Pro-Pro-Pro-Ser-NH2 (H[dS]QGTFTSDYSKYLDK([PEG2′-PEG2′-γGlu-C18 diacid])RRAQDFVQWLLNTGGPSSGAPPPS-NH2) [Compound 39] | 41.68 | significantly inhibit | significantly reduce | significantly inhibit | significantly inhibit | significantly inhibit
His-Aib-Gln-Gly-Thr-Phe-Thr-Ser-Asp-Lys(PEG2-PEG2-γGlu-CO(CH2)14CH3)-Ser-Lys-Tyr-Leu-Asp-Glu-Arg-Arg-Ala-Gln-Asp-Phe-Val-Gln-Trp-Leu-Leu-Asp-Gly-Gly-Pro-Ser-Ser-Gly-Ala-Pro-Pro-Pro-Ser-NH2 (H[Aib]QGTFTSDK([PEG2′-PEG2′-γGlu-Palmitoyl])SKYLDERRAQDFVQWLLDGGPSSGAPPPS-NH2) [Compound 16] | 40.35 |  |  |  |  | 
His-(D-Ser)-Gln-Gly-Thr-Phe-Thr-Ser-Asp-Tyr-Ser-Lys-Tyr-Leu-Asp-Ser-Lys(PEG2-PEG2-γGlu-CO(CH2)16CO2H)-Ala-Ala-His-Asp-Phe-Val-Glu-Trp-Leu-Leu-Asn-Gly-Gly-Pro-Ser-Ser-Gly-Ala-Pro-Pro-Pro-Ser-NH2 (H[dS]QGTFTSDYSKYLDSK([PEG2′-PEG2′-γGlu-C18 diacid])AAHDFVEWLLNGGPSSGAPPPS-NH2) [Compound 21] | 37.66 |  |  |  |  | 
His-(D-Ser)-Gln-Gly-Thr-Phe-Thr-Ser-Asp-Tyr-Ser-Lys-Tyr-Leu-Asp-Glu-Lys-Ala-Ala-Lys(PEG2-PEG2-γGlu-CO(CH2)14CH3)-Glu-Phe-Ile-Glu-Trp-Leu-Leu-Asn-Gly-Gly-Pro-Ser-Ser-Gly-Ala-Pro-Pro-Pro-Ser-NH2 (H[dS]QGTFTSDYSKYLDEKAAK([PEG2′-PEG2′-γGlu-Palmitoyl])EFIEWLLNGGPSSGAPPPS-NH2) [Compound 29] | 49.36 |  |  |  |  | 
His-(D-Ser)-Gln-Gly-Thr-Phe-Thr-Ser-Asp-Lys(PEG2-PEG2-CO(CH2)16CO2H)-Ser-Lys-Tyr-Leu-Asp-Aib-Arg-Arg-Ala-Gln-Asp-Phe-Val-Gln-Trp-Leu-Met-Asn-Thr-Gly-Gly-Pro-Ser-Ser-Gly-Ala-Pro-Pro-Pro-Ser-NH2 (H[dS]QGTFTSDK([PEG2′-PEG2′-C18 diacid])SKYLD[Aib]RRAQDFVQWLMNTGGPSSGAPPPS-NH2) [Compound 30] | 55.53 |  |  |  |  | 
His-(D-Ser)-Gln-Gly-Thr-Phe-Thr-Ser-Asp-Tyr-Ser-Lys-Tyr-Leu-Asp-Lys(PEG2-PEG2-CO(CH2)16CO2H)-Arg-Arg-Ala-Gln-Asp-Phe-Val-Gln-Trp-Leu-Nle-Asn-Thr-Gly-Gly-Pro-Ser-Ser-Gly-Ala-Pro-Pro-Pro-Ser-NH2 (H[dS]QGTFTSDYSKYLDK([PEG2′-PEG2′-C18 diacid])RRAQDFVQWL[Nle]NTGGPSSGAPPPS-NH2) [Compound 41] | 42.10 |  |  |  |  | 
His-Aib-Gln-Gly-Thr-Phe-Thr-Ser-Asp-Lys(PEG2-PEG2-γGlu-CO(CH2)16CH3)-Ser-Lys-Tyr-Leu-Asp-Aib-Arg-Arg-Ala-Gln-Asp-Phe-Val-Gln-Trp-Leu-Leu-Asp-Gly-Gly-Pro-Ser-Ser-Gly-Ala-Pro-Pro-Pro-Ser-NH2 (H[Aib]QGTFTSDK([PEG2′-PEG2′-γGlu-Stearoyl])SKYLD[Aib]RRAQDFVQWLLDGGPSSGAPPPS-NH2) [Compound 12] | 36.99 |  |  |  |  | 
His-Aib-Gln-Gly-Thr-Phe-Thr-Ser-Asp-Lys(PEG2-PEG2-γGlu-CO(CH2)14CO2H)-Ser-Lys-Tyr-Leu-Asp-Aib-Arg-Arg-Ala-Gln-Asp-Phe-Val-Gln-Trp-Leu-Leu-Asp-Gly-Gly-Pro-Ser-Ser-Gly-Ala-Pro-Pro-Pro-Ser-NH2 (H[Aib]QGTFTSDK([PEG2′-PEG2′-γGlu-C16 diacid])SKYLD[Aib]RRAQDFVQWLLDGGPSSGAPPPS-NH2) [Compound 11] | 41.78 |  |  |  |  | 
His-(D-Ser)-Gln-Gly-Thr-Phe-Thr-Ser-Asp-Lys(PEG2-PEG2-CO(CH2)14CH3)-Ser-Lys-Tyr-Leu-Asp-Aib-Arg-Arg-Ala-Gln-Asp-Phe-Val-Gln-Trp-Leu-Nle-Asn-Thr-Gly-Gly-Pro-Ser-Ser-Gly-Ala-Pro-Pro-Pro-Ser-NH2 (H[dS]QGTFTSDK([PEG2′-PEG2′-Palmitoyl])SKYLD[Aib]RRAQDFVQWL[Nle]NTGGPSSGAPPPS-NH2) [Compound 45] | 32.22 |  |  |  |  | 
His-(D-Ser)-Gln-Gly-Thr-Phe-Thr-Ser-Asp-Tyr-Ser-Lys-Tyr-Leu-Asp-Lys(PEG2-PEG2-CO(CH2)14CH3)-Arg-Arg-Ala-Gln-Asp-Phe-Val-Gln-Trp-Leu-Leu-Asn-Thr-Gly-Gly-Pro-Ser-Ser-Gly-Ala-Pro-Pro-Pro-Ser-NH2 (H[dS]QGTFTSDYSKYLDK([PEG2′-PEG2′-Palmitoyl])RRAQDFVQWLLNTGGPSSGAPPPS-NH2) [Compound 42] | 38.11 |  |  |  |  | 
